Experiments:
[1] = tested on: Normal Fibroblast (3T3-L1 fibroblasts); assay: Cellular triacyl glycerol (TAG) content, normal fibroblast; type: cell-based
Experimental: Expression of differentiation markers. Carcinoembryogenic antigen in cell supernatants collected each three days was assayed by standard ELISA determinations using an IMX assay for quantitative measurement of the antigen. Cellular triacyl glycerol content was measured spectrophotometrically by enzymatic hydrolysis and analysis of the amount of glycerol released using a standard assay, Triglyceride (INT) 10 (Sigma Diagnostics). […] The fluorescence is detected at 450 nm with an excitation of 365 nm, using a Jobin Ivon-Spex Fluoro Max-2 fluorimeter. The alkaline phosphatase activity detected was expressed in units of μmol/mg protein/min. These compounds also affect the timing for the fat accumulation. After 9 days of incubation with insulin and bovine pituitary extract, but without biliverdin, the fat droplets in the cells are small and scattered diffusely throughout the cell. These globules continue to enlarge to fill most of the cytoplasmic space by day 14. In contrast, by day 7 the cells incubated in the presence of biliverdin already contain large, grouped and prominent droplets. While the triacyl glycerol content increases in both HT 29 and liposarcoma cells, the fat droplets in HT 29 cells are smaller than those that fill the cytoplasm of the liposarcoma cells. 3T3-L1 fibroblasts differentiate into adipocytes in the presence of insulin (Table VII). In the absence of biliverdin, this hormone increases the triacylglycerol content of 3T3-L1 fibroblasts by 3-fold relative to control. When biliverdin is added, a progressively greater content of triacyl glycerol is achieved at day 9. The increase is dependent on the biliverdin concentration. At the highest concentration used, 4×10^−7 M, there is a 5.8-fold increase of triacyl glycerol content over that of the undifferentiated fibroblasts (Table VII). This almost doubles the amount in the cells incubated with differentiation medium alone and is nearly as high as observed with troglitazone. At a lower biliverdin concentration, 10^−8 M, there is a 3.5-fold increase compared to control values. Remarkably, the amounts of biliverdin required to achieve the effects on proliferation, cell cycle and differentiation marker up-regulation, i.e. 10^−7-10^−06 M, are the same as those needed to re-establish the capacity of embryos depleted of the tetrapyrrole by treatment with UV-light to form a dorsal axis.

Liposarcoma cells = assay: Cellular triacyl glycerol (TAG) content, liposarcoma; type: cell-based, human; conditions: insulin 5 μg/ml, pituitary extract 20 μg/ml, biliverdin 4 × 10^−7 M where present
Experimental: Expression of differentiation markers. Carcinoembryogenic antigen in cell supernatants collected each three days was assayed by standard ELISA determinations using an IMX assay for quantitative measurement of the antigen. Cellular triacyl glycerol content was measured spectrophotometrically by enzymatic hydrolysis and analysis of the amount of glycerol released using a standard assay, Triglyceride (INT) 10 (Sigma Diagnostics). Cellular alkaline phosphatase activity was determined by measuring the fluorescence change induced by the hydrolysis of 4-methylumbelliferylphosphate. The fluorescence is detected at 450 nm with an excitation of 365 nm, using a Jobin Ivon-Spex Fluoro Max-2 fluorimeter. The alkaline phosphatase activity detected was expressed in units of μmol/mg protein/min.
Liposarcoma cells also accumulate triacyl glycerol in response to biliverdin. The extent of the accumulation is determined by the composition of the incubation media. Triacyl glycerol is induced in liposarcoma cells by insulin alone. The amount increases when bovine pituitary extract is added with the insulin. The highest production is achieved, however, when biliverdin is combined with insulin plus bovine pituitary extract.

[2] = tested on: UV-irradiated Xenopus laevis stage 1 embryos; assay: Rescue of dorsal axis formation in UV-irradiated embryos, scored by dorsal anterior index (DAI); type: in vivo
Experimental: (§1) Several hundred spawned eggs were fertilized in vitro and incubated at 16 to 18° C. […] The vegetal surfaces of some of these embryos were irradiated with one or the other sources of UV light within 10 min of fertilization for 20-30 min. […] The embryos were not disturbed, touched or tipped from the moment of fertilization, during UV irradiation or for the duration of development. […] A score of 5 defines a normal dorsal axis, 4 a microcephalic, 3 a cyclopic, 2 an anoptic, 1 an acephalic and 0 an adorsal embryo.
The biological activities of biliverdin and its derivatives were tested by adding each of them to the incubation solution of embryos after the termination of the UV light exposure to either 254 or 366 nm UV light and at selected time periods between T ƒfm=0.4-2.5. Final concentrations of biliverdin ranged from 0.05 to 5 μM in less than 1% ethanol. […] An extinction coefficient of 51,000 was utilized to calculate their concentrations. All petri dishes were covered with aluminum foil to avoid light exposure. The extent of dorsal axis formation was analyzed by the morphological criteria described above.
Stage 1 embryos were exposed to UV-light source emitting at 366 nm (Mineralight UVSL-58, Ultraviolet Products, Inc., San Gabriel, Calif.) as described and then incubated in the presence of pure candidate DCD or commercially available biliverdin (Sigma-Aldrich, St. Louis, Mo.) at final concentrations from 0.05 to 1.2 μM in less than 1% ethanol. The concentrations were calculated using a molar extinction coefficient of 51,000. One group of embryos was not exposed to UV light but was incubated in the presence of 0.5 μM of candidate DCD.

[3] = tested on: p 21 content in HT 29 Colon Cancer Cells; assay: p21 content in HT 29 colon cancer cells; type: cell-based, human; conditions: HT 29 low-density culture
Experimental: Biliverdin IXα exerts powerful effects on human colon cancer HT 29 cells. Normally, the contents of p21 and p27, known inhibitors of the CDK system, increase as control HT 29 cells become confluent and reach stationary phase. […] In contrast, addition of 4×10^−7 M biliverdin to the incubation medium of the low-density cultures, results in persistence and/or progressive increase in p21 and p27 content starting as early as 16 hs. This effect on p21 induction is dependent on one or both of the propionic acid side chains of biliverdin.

[4] = tested on: control fertilized oocytes unexposed to UV light; assay: Development of control embryos unexposed to UV light incubated with the compounds (dysmorphogen test); conditions: control fertilized oocytes unexposed to UV light incubated with the compound
Experimental: as §1
The biological activities of biliverdin and its derivatives were tested by adding each of them to the incubation solution of embryos after the termination of the UV light exposure to either 254 or 366 nm UV light and at selected time periods between T ƒfm=0.4-2.5. Final concentrations of biliverdin ranged from 0.05 to 5 μM in less than 1% ethanol. […] The extent of dorsal axis formation was analyzed by the morphological criteria described above.
Stage 1 embryos were exposed to UV-light source emitting at 366 nm (Mineralight UVSL-58, Ultraviolet Products, Inc., San Gabriel, Calif.) as described and then incubated in the presence of pure candidate DCD or commercially available biliverdin (Sigma-Aldrich, St. Louis, Mo.) at final concentrations from 0.05 to 1.2 μM in less than 1% ethanol. The concentrations were calculated using a molar extinction coefficient of 51,000. […]

HT29 colon cancer cells = assay: Cellular proliferation and viability of HT29 colon cancer cells; type: cell-based, human
Experimental: Cell Culture Conditions. Human HT 29 colon cancer cells were purchased from the American Type Culture Collection. Cells were maintained in Dulbecco's Modified Eagle's Medium (DME) supplemented with 5% heat-inactivated fetal bovine serum, 2 mM glutamine, and antibiotics (DME/5%). All cell lines were incubated in a humidified 5% CO2/air environment. They were maintained at 37° C. in 5% CO2 covered in aluminum foil to prevent exposure to the light. A total of 1×10^6 cells were incubated per flask and allowed to attach overnight. Media was changed every third day. Cell counts were performed on a Coulter Counter following detachment of cells by standard trypsinization procedures. […] The period of exposure was followed by incubation in the absence of biliverdine. Cell numbers were monitored until proliferation resumed. The production of CEA and alkaline phosphatase was measured as described below.
The HT29 colon cancer cells were incubated with different concentrations of biliverdine and their response studied to identify the concentration ranges required to elicit a biological and/or a toxicological response (Table III).

Compound | increase of triacylglycerol content relative to control ([1]; 3T3-L1 fibroblasts, insulin in the absence of biliverdin) [fold] | % Change of TAG ([1]; Normal Fibroblast, insulin 5 μg/ml, biliverdin 4 × 10^−7 M where present) [%] | TAG ([1]; Normal Fibroblast, insulin 5 μg/ml, biliverdin 4 × 10^−7 M where present, control 9.3) [mg/10^6 cells] | % Change of TAG (Liposarcoma cells) [%] | TAG (Liposarcoma cells; control 12.3) [mg/10^6 cells] | recovery of dorsal axial structures ([2]; 254 or 366 nm UV-irradiated embryos, μM amounts) | recovery of dorsal axis formation ([2]; UV-irradiated embryos, 3.7 μM) | p21 content in words [3] | average DAI of control embryos [4] | activity on human colon adenocarcinoma cells (p21/p27, G1, proliferation arrest, differentiation markers) (HT29 colon cancer cells)
Insulin: hormone; differentiates 3T3-L1 fibroblasts into adipocytes | 3 | 304 | 28.3 | 139 | 17.1 | – | – | – | – | –
C=CC1=C(C)/C(=C/C2=NC(=C\c3[nH]c(/C=C4\NC(=O)C(C)=C4C=C)c(C)c3CCC(=O)OC)/C(CCC(=O)OC)=C2C)NC1=O.Cl [biliverdin dimethyl ester hydrochloride, reference compound] | – | – | – | – | – | does not induce recovery | no recovery | nearly undetectable | 5 | inactive

From US6902881B2, “Compounds and methods for regulating cell differentiation” (priority 2000, dated 2005)
